# Data published in publication PMC10246279, “Parasite proteostasis and artemisinin resistance” (Research Square, 2023).
# Key:
# [1] = test system: T1, P. falciparum proteasome, β1 (caspase-like) activity; conditions: live trophozoites treated 3 h, then lysed; K13 C580Y background; effect may be indirect
# T1 construct: gene beta1
# [2] = target: T2, P. falciparum proteasome, β5 (chymotrypsin-like) activity (Plasmodium falciparum, UniProt Q8IJT1); assay: fluorogenic Suc-LLVY-AMC cleavage in lysate of drug-treated parasites; type: cell-based; conditions: read-out: % inhibition at 700 nM
# T2 construct: gene PF3D7_1011400; native proteasome in NP-40 lysate of 26-30 hpi trophozoites; not purified; 20S core of four heptameric rings; with Proteasome subunit beta type-7 (beta2 catalytic subunit); Proteasome subunit beta type-6 (beta1 catalytic subunit)
# [3] = target: T3, P. falciparum proteasome, β1 (caspase-like) activity (Plasmodium falciparum, UniProt Q8I0U7); assay: fluorogenic Ac-nLPnLD-AMC cleavage in lysate of drug-treated parasites; type: cell-based; conditions: read-out: % inhibition at 700 nM
# T3 construct: gene PF3D7_0931800; native proteasome in NP-40 lysate of 26-30 hpi trophozoites; not purified; 20S core of four heptameric rings; with Proteasome subunit beta type-7 (beta2 catalytic subunit); Proteasome subunit beta type-5
# [4] = target: T4, P. falciparum proteasome, β2 (trypsin-like) activity (Plasmodium falciparum, UniProt Q8I6T3); assay: fluorogenic Ac-RLR-AMC cleavage in lysate of drug-treated parasites; type: cell-based; conditions: read-out: % inhibition at 700 nM
# T4 construct: gene PF3D7_1328100; native proteasome in NP-40 lysate of 26-30 hpi trophozoites; not purified; 20S core of four heptameric rings; with Proteasome subunit beta type-5; Proteasome subunit beta type-6 (beta1 catalytic subunit)
# [5] = test system: T5, P. falciparum proteasome, β5 (chymotrypsin-like) activity; conditions: live trophozoites treated 3 h, then lysed; K13 C580Y background; effect may be indirect
# T5 construct: gene beta5
# T3 sequence (Q8I0U7 entry or part of it): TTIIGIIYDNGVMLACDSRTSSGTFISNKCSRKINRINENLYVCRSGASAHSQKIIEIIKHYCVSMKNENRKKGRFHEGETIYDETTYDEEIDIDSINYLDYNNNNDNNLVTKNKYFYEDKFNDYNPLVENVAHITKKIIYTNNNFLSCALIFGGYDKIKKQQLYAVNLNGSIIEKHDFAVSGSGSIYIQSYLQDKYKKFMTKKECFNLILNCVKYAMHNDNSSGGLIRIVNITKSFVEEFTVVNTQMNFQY
# T4 sequence (Q8I6T3 entry or part of it): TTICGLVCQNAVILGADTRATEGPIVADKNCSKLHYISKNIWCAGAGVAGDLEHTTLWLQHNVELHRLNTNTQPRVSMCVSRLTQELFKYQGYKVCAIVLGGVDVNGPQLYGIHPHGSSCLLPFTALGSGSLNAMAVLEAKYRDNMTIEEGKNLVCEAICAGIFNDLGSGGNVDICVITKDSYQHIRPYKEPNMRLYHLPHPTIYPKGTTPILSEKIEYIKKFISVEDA
# T2 sequence (Q8IJT1 entry or part of it): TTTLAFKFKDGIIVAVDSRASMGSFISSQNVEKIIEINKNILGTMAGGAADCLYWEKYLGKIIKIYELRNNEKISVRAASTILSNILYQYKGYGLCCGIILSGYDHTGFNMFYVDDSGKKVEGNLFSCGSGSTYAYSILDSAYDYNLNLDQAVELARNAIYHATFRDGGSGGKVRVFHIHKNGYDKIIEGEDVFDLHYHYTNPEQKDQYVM
SMILES,% inhibition at 50 nM [1] [%],inhibition at 0.7 µM [2] [%],inhibition at 0.7 µM [3] [%],inhibition at 0.7 µM [4] [%],% inhibition at 3 μM [5] [%]
C[C@@H]1CC[C@H]2[C@@H](C)C(O)O[C@@H]3O[C@@]4(C)CC[C@@H]1[C@]32OO4 (some centres unmarked) [DHA],49,~60,~40,~40,
c1cc(C2CCC3(CC2)OOC2(O3)C3CC4CC(C3)CC2C4)ccc1OCCN1CCOCC1 (centres unmarked) [OZ439],,,,,52
